The text below walks through data of ChEMBL document CHEMBL1201862, “PubChem BioAssay data set” (2004).

What all share (assay): NCI anticancer screen, dose series, 48 h
In assay [1] the test system is MOLT-4.
The subject of assay [2] is K562.
Assay [3] has as its system RXF 393.
Assay [4] concerns HOP-92.
The test system of assay [5] is SNB-19.
Assay [6] deals with HCT-15.
Assay [7] deals with NCI-H522.
Assay [8] relates to CCRF-CEM.
Assay [9] has as its system ACHN.
In assay [10] the test system is M14.
The subject of assay [11] is EKVX.
The test system of assay [12] is OVCAR-8.
For assay [13], the system named is IGROV-1.
In assay [14] the test system is HL-60.
Assay [15] relates to SF-268.

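Tested at 5 concentrations; 48 h exposure; 96-well plates; endpoints linearly interpolated, else capped at highest concentration. Abbreviation: GI50, concentration required for 50% inhibition of growth.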 Active and inactive are the calls of the source. Cut-off read from the data, not from the text of the source: active = GI50 up to about 1.1 µM and inactive = higher. Where a SMILES comes first, the peptide text is derived from it. [ ]: non-standard residue; d: D form. Phe(4-Cl) = N[CH](Cc1ccc(Cl)cc1)C(=O)O

Consider `COC1=CC2(C=CC1=O)c1cc(OC)c(OC)cc1CCN2C(=O)c1ccccc1` (stereo not drawn), for which the GI50 was > 100 µM (inactive) in assay [1]; > 100 µM (inactive) in assay [2]; > 100 µM (inactive) in [3]; > 100 µM (inactive) in [4]; > 100 µM (inactive) in assay [5]; above 100 µM in assay [6]. Besides, the GI50 in assay [7], in assay [8], in assay [9], in assay [10], in assay [11] and in assay [12] was > 100 µM (inactive) each time. Besides, the GI50 in [13] is > 100 µM (inactive).

In the case of `CS(=O)(=O)NNS(=O)(=O)c1ccc(Cl)cc1`, the GI50 in [1] is 55.7 µM (inactive); in assay [2], > 100 µM (inactive); in assay [3], 26.1 µM (inactive); in assay [5] it was > 100 µM (inactive); in [6], above 100 µM; in [7], 90.8 µM (inactive). For the same molecule, the GI50 in assay [8] was 29.9 µM (inactive); in assay [9] it was > 100 µM (inactive); in assay [10], > 100 µM (inactive); in assay [14], > 100 µM (inactive); in [11], 76.4 µM (inactive); in assay [12], > 100 µM (inactive). For the same molecule, the GI50 in assay [13] is > 100 µM (inactive).

Consider `CCCCC#COP(=O)(OCC)OCC`, for which the GI50 was > 100 µM (inactive) in [1]; > 100 µM (inactive) in assay [5]; above 100 µM in assay [6]; > 100 µM (inactive) in [7]; > 100 µM (inactive) in assay [8]; > 100 µM (inactive) in assay [9]. Also, the GI50 in [10], in [15], in assay [14], in assay [11], in assay [12] and in assay [13] was > 100 µM (inactive) in each case.

Consider `Cc1ccc2c(c1)C(c1cccc3ccccc13)OC2=O` (stereo not drawn), for which the GI50 is > 100 µM (inactive) in assay [1]; > 100 µM (inactive) in [2]; 27.8 µM (inactive) in assay [3]; 64.7 µM (inactive) in assay [5]; above 100 µM in assay [6]; > 100 µM (inactive) in [7]. For the same molecule, the GI50 is > 100 µM (inactive) in assay [8]; 92.9 µM (inactive) in assay [9]; 41 µM (inactive) in assay [10]; > 100 µM (inactive) in [15]; > 100 µM (inactive) in assay [14]; 69.8 µM (inactive) in assay [11]. Besides, the GI50 was 84.5 µM (inactive) in assay [12] and > 100 µM (inactive) in [13].

For `NC(=S)/N=C(/c1nc2ccc(Cl)cc2nc1O)C(O)c1ccccc1Cl` (stereo not drawn), the GI50 in [1] is > 100 µM (inactive); in assay [2], > 100 µM (inactive); in assay [3], > 100 µM (inactive); in assay [4] it was > 100 µM (inactive); in [6], above 100 µM; in [7], > 100 µM (inactive). Besides, the GI50 in assay [8], in assay [9], in assay [10], in assay [15], in [14] and in [11] was > 100 µM (inactive) in each case. Besides, the GI50 in [12] and in assay [13] was > 100 µM (inactive) in each case.

Turning to `CC(C)NC(=O)CCN(C(=O)O)S(=O)(=O)c1ccc(NC(=O)c2ccccc2)cc1`, the GI50 is > 41.2 µM (inactive) in assay [1]; > 43.7 µM (inactive) in [2]; > 100 µM (inactive) in [3]; > 100 µM (inactive) in [4]; > 100 µM (inactive) in assay [5]; above 42.2 µM in assay [6]. For the same molecule, the GI50 was > 100 µM (inactive) in assay [7]; > 43.9 µM (inactive) in [8]; > 81.3 µM (inactive) in assay [9]; > 100 µM (inactive) in assay [10]; > 54.5 µM (inactive) in assay [15]; > 48.8 µM (inactive) in [14]. Besides, the GI50 is > 100 µM (inactive) in assay [11], > 54.5 µM (inactive) in assay [12] and > 100 µM (inactive) in assay [13].

`COC(=O)C1(F)C(=O)NC(=O)NC1OC` (stereo not drawn): the GI50 in assay [1] is > 100 µM (inactive); in [2], 96.2 µM (inactive); in assay [4], 45.7 µM (inactive); in assay [5], > 100 µM (inactive); in assay [6] it was 22.9 µM; in assay [7], 75.5 µM (inactive). Moreover, the GI50 is 3.08 µM (inactive) in assay [8]; 29 µM (inactive) in assay [9]; 45.4 µM (inactive) in assay [15]; 3.09 µM (inactive) in assay [14]; 34.1 µM (inactive) in assay [12]; > 100 µM (inactive) in assay [13].

Regarding `CC(O)C(NC(=O)C(Cc1ccccc1)NC(=O)C(NC(=O)C(CCCCN)NC(=O)C(Cc1c[nH]c2ccccc12)NC(=O)C(Cc1ccc(O)cc1)NC(=O)C(Cc1ccc(Cl)cc1)NC(=O)C(N)Cc1ccccc1)C(C)O)C(N)=O` (stereo not drawn) (H-F[Phe(4-Cl)]YWKTFT-NH2; configuration not given here), the GI50 is 25.9 µM (inactive) in assay [1]; 15.6 µM (inactive) in assay [2]; 16 µM (inactive) in assay [3]; 18.4 µM (inactive) in assay [5]; 17.9 µM in assay [6]; 15.8 µM (inactive) in [8]. Also, the GI50 in assay [9] is 21.9 µM (inactive); in assay [10], 22.7 µM (inactive); in assay [14], 15.3 µM (inactive); in assay [11] it was 16.4 µM (inactive); in assay [12], 23.9 µM (inactive); in assay [13] it was 19.9 µM (inactive).

Regarding `COC(=N)c1csc(C2OC(CO)C(O)C2O)n1` (stereo not drawn), the GI50 in [1] was 61.9 µM (inactive); in assay [2] it was > 100 µM (inactive); in [4] it was > 100 µM (inactive); in [5] it was > 100 µM (inactive); in [6], above 100 µM; in [7] it was > 100 µM (inactive). Besides, the GI50 in [8] is 86.5 µM (inactive); in assay [9], > 100 µM (inactive); in assay [10], > 100 µM (inactive); in assay [15], > 100 µM (inactive); in [14], 38.5 µM (inactive); in assay [11], > 100 µM (inactive). The GI50 in [12] and in assay [13] was > 100 µM (inactive) each time.

For the molecule `CCOC(=O)c1c(-c2ccccc2)oc(-c2ccccc2)c1C(=O)OCC`, the GI50 in assay [1] was 48.1 µM (inactive); in assay [2], 67.3 µM (inactive); in assay [3], > 100 µM (inactive); in [4] it was > 100 µM (inactive); in [5], > 100 µM (inactive); in [7] it was > 100 µM (inactive). Also, the GI50 was 41.1 µM (inactive) in [8]; > 100 µM (inactive) in [9]; > 100 µM (inactive) in assay [10]; > 100 µM (inactive) in [15]; 33.6 µM (inactive) in assay [14]; > 100 µM (inactive) in assay [11]. The GI50 in assay [12] and in assay [13] was > 100 µM (inactive) throughout.

Turning to `COC(=O)CCC(NC(=S)N/N=C/c1ccco1)C(=O)OC` (stereo not drawn), the GI50 is > 100 µM (inactive) in assay [2]; > 100 µM (inactive) in assay [3]; > 100 µM (inactive) in [5]; above 100 µM in assay [6]; > 100 µM (inactive) in [7]; > 100 µM (inactive) in [8]. Besides, the GI50 in assay [9], in assay [10], in assay [15], in assay [14], in assay [11] and in assay [12] was > 100 µM (inactive) each time. The GI50 in assay [13] is > 100 µM (inactive).

For the molecule `O=c1c2ccc(Br)cc2nc(-c2ccccc2)n1NC1OC(CO)C(O)C(O)C1O` (stereo not drawn), the GI50 in [1] was 57.3 µM (inactive); in [2], > 100 µM (inactive); in assay [4] it was > 100 µM (inactive); in assay [5], > 100 µM (inactive); in [6], above 100 µM; in [7] it was > 100 µM (inactive). The GI50 in assay [8] is 72.9 µM (inactive); in [9], > 100 µM (inactive); in assay [10], > 100 µM (inactive); in assay [15], > 100 µM (inactive); in assay [14] it was > 100 µM (inactive); in assay [11], > 100 µM (inactive). The GI50 in assay [12] and in [13] was > 100 µM (inactive) each time.

For the molecule `CC1=C(c2cc(C(=O)Nc3cccc(C(F)(F)F)c3)nc(NC#N)n2)Sc2ccccc2N1`, the GI50 in assay [1] was > 100 µM (inactive); in assay [2] it was > 100 µM (inactive); in assay [3], > 100 µM (inactive); in assay [4] it was > 100 µM (inactive); in assay [5], > 100 µM (inactive); in assay [6], above 100 µM. In addition, the GI50 was 68.7 µM (inactive) in [8]; > 100 µM (inactive) in assay [9]; > 100 µM (inactive) in assay [10]; > 100 µM (inactive) in assay [15]; > 100 µM (inactive) in assay [14]; > 100 µM (inactive) in [11]. For the same molecule, the GI50 in [13] was > 100 µM (inactive).

Take `COc1ccc2c(c1)NC1(O)c3ccccc3C(=O)C21O` (stereo not drawn): the GI50 in assay [1], in assay [2], in assay [4], in [5], in [7] and in assay [8] was > 100 µM (inactive) throughout. Besides, the GI50 in assay [9], in assay [10], in [15], in assay [14], in [12] and in assay [13] was > 100 µM (inactive) in each case.

Consider `CC(=O)OCC(=O)[C@@]1(O)CC[C@H]2[C@@H]3CCC4=CC(=O)[C@H](C)C[C@]4(C)[C@H]3[C@@H](O)C[C@@]21C`, for which the GI50 in assay [2] is > 100 µM (inactive); in [4], > 100 µM (inactive); in assay [5] it was > 100 µM (inactive); in [6], above 100 µM; in [7], > 100 µM (inactive); in assay [8] it was > 100 µM (inactive). Besides, the GI50 in assay [9], in [10], in [15], in assay [14], in assay [11] and in assay [12] was > 100 µM (inactive) throughout. The GI50 in assay [13] was > 100 µM (inactive).
